Data reported in patent US4710568A, “Carbapenem antibiotics” (priority 1986, dated 1987).
Converted amounts (≈) assume the structure as drawn. Like-named read-outs stand apart in the source and are kept apart here.

Columns and labels:
S. pyogenes A-9604 = assay: MIC by tube dilution in Nutrient Broth; type: cell-based; conditions: additional data; overnight at 37° C.
P. vulgaris A21559 = assay: MIC by tube dilution in Nutrient Broth; type: cell-based; conditions: additional data; overnight at 37° C.
K. pneumoniae A-9664 = assay: MIC by tube dilution in Nutrient Broth; type: cell-based; conditions: additional data; overnight at 37° C.
P. aeruginosa A21213 = assay: MIC by tube dilution in Nutrient Broth; type: cell-based; conditions: additional data; overnight at 37° C.
P. rettgeri A22424 = assay: MIC by tube dilution in Nutrient Broth; type: cell-based; conditions: additional data; overnight at 37° C.
S. pneumoniae A-9585 = assay: MIC by tube dilution in Nutrient Broth; type: cell-based; conditions: additional data; overnight at 37° C.
P. mirabilis A-9900 = assay: MIC by tube dilution in Nutrient Broth; type: cell-based; conditions: additional data; overnight at 37° C.
P. aeruginosa A-9843A = assay: MIC by tube dilution in Nutrient Broth; type: cell-based; conditions: additional data; overnight at 37° C.
E. coli A20341-1 = assay: MIC by tube dilution in Nutrient Broth; type: cell-based; conditions: overnight at 37° C.
[1] = half-life in phosphate buffer pH 7.4; type: physicochemical; conditions: for t1/2: pH 7.4
Procedure: To a solution of p-nitrobenzyl 3-[2-(1-pyridinium)ethylthio]-6α-[1-(R)-hydroxyethyl]-7-oxo-1-azabicyclo(3.2.0)hept-2-ene-carboxylate diphenylphosphate (0.16 g, 0.22 mmol) in wet tetrahydrofuran (10 mL) was added ether (10 mL), potassium phosphate monobasic-sodium hydroxide buffer pH 7.4 (16 mL, 0.05M) and 10% palladium on charcoal (0.16 g). The resulting mixture was hydrogenated under 40 psi for 1 h at 25° C. The two phases were separated and the organic phase was extracted with water (2×3 mL). The aqueous solutions were combined, washed with ether (2×10 mL) and poured on top of a column (1.5×6.2 cm) of μ-bondapak C-18 after the traces of organic solvents have been removed under vacuum.
To a solution of p-nitrobenzyl 3-[2-(1-(3,5-dimethylpyridinium))ethylthio]-6α-[1-(R)-hydroxyethyl]- 7-oxo-1-azabicyclo(3.2.0)hept-2-ene-2-carboxylate diphenylphosphate (0.600 g, 0.80 mmol) in wet tetrahydrofuran (36 mL) was added ether (36 mL), potassium phosphate monobasic-sodium hydroxide buffer (0.05M, pH 7.4, 44 mL) and 10% palladium on charcoal (0.60 g). The resulting mixture was hydrogenated under 40 psi at 23° C. for 1.25 h. The organic layer was separated and extracted with buffer (2×5 mL). […] Elution of the column with water and lyophilization of the appropriate fractions gave the title compound 0.186 g (64%) as a yellowish powder, ir (KBr) .nu.max : 3700-3100 (OH), 1760 (C= O of β-lactam), 1595 cm^-1 (carboxylate), ^1 Hmr (D2 O) δ: 1.21 (3H, d, J=6.3 Hz, CH3 CHOH), 2.45 (6H, s, CH3 on pyridinium), 2.81 (d, J=9.2 Hz, H-4), 2.96 (d, J=9.2 Hz, H-4), 3.22 (dd, J=2.6 Hz, J=6.2 Hz, H-6), 3.40 (t, J=6.2 Hz, CH2 S), 3.84 (dd, J=9.2 Hz, J=2.6 Hz, H-5), 4.15 (m, CH3 CHOH), 4.71 (t, J=6.2 Hz, CH2 N^+), 8.21 (1H, s, Hp of pyridinium), 8.46 (2H, s, Ho of pyridinium), uv (H2 O) λmax : 279 (ε8345), 296 (ε7714) m, [α]D^23 +40.7 (c 0.53, H2 O), .tau.1/2 =16.9 h (measured at a concentration of […] in phosphate buffer pH 7.4 at 36.8° C.). […]

S. faecalis A20688 = assay: MIC by tube dilution in Nutrient Broth; type: cell-based; conditions: additional data; overnight at 37° C.
P. morganii A15153 = assay: MIC by tube dilution in Nutrient Broth; type: cell-based; conditions: additional data (M. morganii A15153); overnight at 37° C.
S. aureus A-9537 = assay: MIC by tube dilution in Nutrient Broth; type: cell-based; conditions: additional data, overnight at 37° C.
[2] = system: S. aureus (Pen-res.) A-9606; assay: MIC by tube dilution in Nutrient Broth; type: cell-based; conditions: additional data, overnight at 37° C.
K. pneumoniae A20468 = assay: MIC by tube dilution in Nutrient Broth; type: cell-based; conditions: additional data; overnight at 37° C.
E. coli A15119 = assay: MIC by tube dilution in Nutrient Broth; type: cell-based; conditions: overnight at 37° C.
E. cloacae A-9659 = assay: MIC by tube dilution in Nutrient Broth; type: cell-based; conditions: additional data; overnight at 37° C.
S. marcescens A20019 = assay: MIC by tube dilution in Nutrient Broth; type: cell-based; conditions: additional data; overnight at 37° C.
E. cloacae A-9656 = assay: MIC by tube dilution in Nutrient Broth; type: cell-based; conditions: additional data; overnight at 37° C.
[3] = Escherichia coli, A15119, additional data, read-out: MIC

| SMILES | MIC (S. pyogenes A-9604) [µg/mL] | MIC (P. vulgaris A21559) [µg/mL] | MIC (P. aeruginosa A21213) [µg/mL] | MIC (S. pneumoniae A-9585) [µg/mL] | MIC (P. mirabilis A-9900) [µg/mL] | MIC (P. aeruginosa A-9843A) [µg/mL] | MIC (S. faecalis A20688) [µg/mL] | MIC (P. morganii A15153) [µg/mL] | MIC (S. aureus A-9537; 50% serum) [µg/mL] | MIC (S. aureus A-9537) [µg/mL] | other results |
| --- | --- | --- | --- | --- | --- | --- | --- | --- | --- | --- | --- |
| CC(C[n+]1ccccc1)SC1=C(C(=O)[O-])N2C(=O)[C@H]([C@@H](C)O)[C@H]2C1 (single isomer, unassigned) [Ex. 15 (cmp. "B")] | 0.001 (≈ 0.00287 µM) | 0.016 (≈ 0.0459 µM) | 1 (≈ 2.87 µM) | 0.001 (≈ 0.00287 µM) | 0.03 (≈ 0.0861 µM) | 32 (≈ 91.8 µM) | 0.5 (≈ 1.44 µM) | 0.06 (≈ 0.172 µM) | 0.016 (≈ 0.0459 µM) | 0.004 (≈ 0.0115 µM) | MIC (K. pneumoniae A-9664): 0.03 µg/mL (≈ 0.0861 µM); MIC (K. pneumoniae A20468): 0.06 µg/mL (≈ 0.172 µM); MIC (E. coli A20341-1; additional data): 0.016 µg/mL (≈ 0.0459 µM); MIC (E. coli A15119; additional data): 0.008 µg/mL (≈ 0.023 µM); MIC (E. cloacae A-9659): 0.06 µg/mL (≈ 0.172 µM); MIC [2]: 0.016 µg/mL (≈ 0.0459 µM); MIC (S. marcescens A20019): 0.03 µg/mL (≈ 0.0861 µM) |
| Cc1cccc(C)[n+]1CCSC1=C(C(=O)[O-])N2C(=O)[C@H]([C@@H](C)O)[C@H]2C1 [Ex. 12] |  |  |  |  |  |  |  |  |  |  | MIC (E. coli A15119; [3]): 0.03 µg/mL (≈ 0.0828 µM) |
| C[C@@H](O)[C@H]1C(=O)N2C(C(=O)[O-])=C(SCC[n+]3cccc(N)c3)C[C@H]12 [Ex. 14, (5R,6S)-3-[2-(3-aminopyridinio)ethylthio]-6-[1-(R)-hydroxyethyl]-7-oxo-1-azabicyclo[3.2.0]hept-2-ene-2-carboxylate] |  |  |  |  |  |  |  |  |  |  | MIC (E. coli A15119; [3]): 0.03 µg/mL (≈ 0.0859 µM) |
| C[C@@H](O)[C@H]1C(=O)N2C(C(=O)[O-])=C(SC3CCCCC3[n+]3ccccc3)C[C@H]12 (single isomer, unassigned) [Ex. 16 (cmp. "B"), (5R,6S)3-[2-[(R or S)-(1-pyridinium)]-1-(R or S)-cyclohexylthio]-6-[1-(R)-hydroxyethyl]-7-oxo-1-azabicyclo(3.2.0)hept-2-ene-2-carboxylate] |  | 0.13 (≈ 0.335 µM) | 8 (≈ 20.6 µM) |  |  |  |  | 0.5 (≈ 1.29 µM) |  | 0.13 (≈ 0.335 µM) | t1/2 [1]: 20.2 h |
| COc1ccc[n+](CCSC2=C(C(=O)[O-])N3C(=O)[C@H]([C@@H](C)O)[C@H]3C2)c1 [Ex. 10, 3-[2-(3-methoxy-1-pyridinium)ethylthio]6α-[1'-(R)-hydroxyethyl]-7-oxo-1-azabicyclo(3.2.0)hept-2-ene-2-carboxylate] |  |  |  |  |  |  |  |  |  |  | MIC (E. coli A20341-1; Escherichia coli, A203411, additional data, read-out: MIC): 0.06 µg/mL (≈ 0.165 µM) |

More lines, main results first:

| MIC (S. pyogenes A-9604) [µg/mL] | MIC (P. vulgaris A21559) [µg/mL] | MIC (P. aeruginosa A21213) [µg/mL] | MIC (S. pneumoniae A-9585) [µg/mL] | MIC (P. mirabilis A-9900) [µg/mL] | MIC (P. aeruginosa A-9843A) [µg/mL] | MIC (S. faecalis A20688) [µg/mL] | MIC (P. morganii A15153) [µg/mL] | MIC (S. aureus A-9537; 50% serum) [µg/mL] | MIC (S. aureus A-9537) [µg/mL] | SMILES | other results |
| --- | --- | --- | --- | --- | --- | --- | --- | --- | --- | --- | --- |
| 0.004 (≈ 0.0103 µM) | 0.06 (≈ 0.154 µM) | 2 (≈ 5.15 µM) | 0.004 (≈ 0.0103 µM) | 0.13 (≈ 0.335 µM) | 32 (≈ 82.4 µM) | 4 (≈ 10.3 µM) | 0.13 (≈ 0.335 µM) | 0.06 (≈ 0.154 µM) | 0.06 (≈ 0.154 µM) | C[C@@H](O)[C@H]1C(=O)N2C(C(=O)[O-])=C(SC3CCCCC3[n+]3ccccc3)C[C@H]12 (single isomer, unassigned) [Ex. 16 (cmp. "A"), (5R,6S)3-[2-[(R or S)-(1-pyridinium)]-1-(R or S)-cyclohexylthio]-6-[1-(R)-hydroxyethyl]-7-oxo-1-azabicyclo(3.2.0)hept-2-ene-2-carboxylate] | MIC (K. pneumoniae A-9664): 0.13 µg/mL (≈ 0.335 µM); MIC (P. rettgeri A22424): 4 µg/mL (≈ 10.3 µM); MIC (E. coli A20341-1; additional data): 0.06 µg/mL (≈ 0.154 µM); half-life ([1]; pH 7.4, t1/2): 16.6 h; MIC ([2]; Staphylococcus aureus, read-out: MIC): 0.13 µg/mL (≈ 0.335 µM) |
| 0.004 (≈ 0.0115 µM) |  |  | 0.004 (≈ 0.0115 µM) | 0.13 (≈ 0.373 µM) | 8 (≈ 23 µM) | 2 (≈ 5.74 µM) | 0.13 (≈ 0.373 µM) | 0.06 (≈ 0.172 µM) | 0.016 (≈ 0.0459 µM) | CC(C[n+]1ccccc1)SC1=C(C(=O)[O-])N2C(=O)[C@H]([C@@H](C)O)[C@H]2C1 (single isomer, unassigned) [Ex. 15 (cmp. "A")] | MIC (P. rettgeri A22424): 0.25 µg/mL (≈ 0.718 µM); MIC (K. pneumoniae A20468): 0.13 µg/mL (≈ 0.373 µM); t1/2 [1]: 15.6 h; MIC (E. coli A15119; additional data): 0.03 µg/mL (≈ 0.0861 µM); MIC (E. cloacae A-9659): 0.13 µg/mL (≈ 0.373 µM); MIC [2]: 0.06 µg/mL (≈ 0.172 µM); MIC (E. cloacae A-9656): 0.25 µg/mL (≈ 0.718 µM) |
